In ChEMBL document CHEMBL1125783, “Novel 1-phenylcycloalkanecarboxylic acid derivatives as potential anticonvulsant agents” (1991) one finds ED50 data, which are given here for ten compounds.

SMILES strings stand for the structures. Where “and” joins values, the source holds several entries; their conditions need not be identical. Equal entries are not always repeated. Calls of active or inactive are those of the source. No cut-off for these calls is given here.

The test system of one experiment is Rattus norvegicus. The experiment is described as follows: Anticonvulsant activity in rats using MES (maximal electroshock) after subcutaneous administration. It is filed as functional. The note with it: sc. In general terms: Protection in the maximal electroshock model is a classic sign of anticonvulsant action.
The term ED50 denotes the dose at which the effect has come halfway, by size or by number of responders. In the case of `CCN(CC)CCOCCOC(=O)C1(c2ccccc2)CCCC1` [CARBETAPENTANE], the ED50 is 25 mg/kg and 48 µmol/kg.

`O=C1NC(=O)C(c2ccccc2)(c2ccccc2)N1` [PHENYTOIN] returned an ED50 of 8 mg/kg.

As to `CCN(CC)CCOCCOCC1(c2ccccc2)CCCC1`, the ED50 was 7 mg/kg and 16 µmol/kg.

The compound `CCN(CC)CCOCCOCC1(c2ccccc2)CCCCC1` showed a 50% effective dose (ED50) of 37 mg/kg.

Turning to `CCN(CC)CCOCCOC(=O)C1(c2ccccc2)CCCCC1`, the 50% effective dose (ED50) was 93 mg/kg and 173 µmol/kg.

The next experiment has as its system Rattus norvegicus. The experiment is described as follows: Anticonvulsant activity in rats using MES (maximal electroshock) after subcutaneous administration; IA-Inactive up to dose of 50 mg/kg.
Details: not given
Also on record: dose 50 mg/kg. It is filed as functional, organism-based.
Regarding `CCN(CC)CCOCCNC(=O)C1(c2ccccc2)CCCCC1`, the ED50 result was “inactive”.

For `CCN(CC)CCOCCNC(=O)C1(c2ccccc2)CCCC1`, the ED50 entry was “inactive”.

Regarding `CCN(CC)CCOCCN(C)CC1(c2ccccc2)CCCC1`, the ED50 result is “inactive”.

For `CCN(CC)CCOCCNCC1(c2ccccc2)CCCC1`, the ED50 entry was “inactive”.

For `CCN(CC)CCOCCNCC1(c2ccccc2)CCCCC1`, the ED50 entry is “inactive”.

Another experiment has as its system Rattus norvegicus. The experiment is described as follows: Anticonvulsant activity in rats, using MES(maximal electroshock), after subcutaneous administration. It counts as functional. The note with it: sc.
In the case of `O=C1NC(=O)C(c2ccccc2)(c2ccccc2)N1` [PHENYTOIN], the ED50 came out at 30 µmol/kg.

For `CCN(CC)CCOCCOCC1(c2ccccc2)CCCCC1`, the ED50 was determined as 86 µmol/kg.
